According to patent US11266622B2, “Method of treatment” (Vanda Pharmaceuticals Inc., priority 2014, dated 2022):

What was measured:
Mel1a (MT1R) = Mel1a (MT1R) (Homo sapiens, UniProt P48039); assay: Affinity (Ki) for melatonin receptor MT1R; type: binding
Mel1b (MT2R) = molecular target: T1, Mel1b (MT2R) (Homo sapiens, UniProt P49286); assay: Affinity (Ki) for melatonin receptor MT2R; type: binding
T1 sequence (P49286 1-362): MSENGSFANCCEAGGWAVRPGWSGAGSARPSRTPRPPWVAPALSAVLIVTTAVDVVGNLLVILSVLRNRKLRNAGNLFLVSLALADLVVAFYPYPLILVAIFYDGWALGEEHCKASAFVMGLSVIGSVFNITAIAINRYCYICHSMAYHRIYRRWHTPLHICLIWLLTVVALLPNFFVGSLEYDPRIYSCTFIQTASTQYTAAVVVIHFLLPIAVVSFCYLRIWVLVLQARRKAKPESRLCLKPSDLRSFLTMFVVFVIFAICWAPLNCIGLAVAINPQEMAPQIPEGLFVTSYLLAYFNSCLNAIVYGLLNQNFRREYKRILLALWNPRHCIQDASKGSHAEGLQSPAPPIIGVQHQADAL

[1] = Solubility of tasimelteon in solvents and water; type: physicochemical
sleep parameters = conditions: cited from earlier work
[2] = Metabolite formation following oral administration of tasimelteon; type: in vivo; conditions: humans

Sequence of Mel1a (MT1R) (P48039 whole entry): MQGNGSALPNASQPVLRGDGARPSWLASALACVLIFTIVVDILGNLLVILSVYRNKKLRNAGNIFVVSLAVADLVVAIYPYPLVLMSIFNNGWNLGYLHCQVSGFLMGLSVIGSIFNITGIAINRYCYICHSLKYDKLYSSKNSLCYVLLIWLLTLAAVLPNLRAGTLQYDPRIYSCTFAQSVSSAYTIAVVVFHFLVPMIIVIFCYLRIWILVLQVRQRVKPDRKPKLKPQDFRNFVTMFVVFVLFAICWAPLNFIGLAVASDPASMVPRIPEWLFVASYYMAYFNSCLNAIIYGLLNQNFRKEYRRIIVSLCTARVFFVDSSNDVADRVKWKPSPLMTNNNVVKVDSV

| Structure (SMILES) | Ki (Mel1a (MT1R)) [nM] | Ki (Mel1b (MT2R)) [nM] | greater affinity for MT2R relative to MT1R (Mel1b (MT2R); MT2R relative to MT1R) | solubility in organic solvents ([1]; 95% ethanol, methanol, acetonitrile, ethyl acetate, isopropanol, polyethylene glycols (PEG-300 and PEG-400)) | effect of pH on aqueous solubility ([1]; aqueous) | native pH of a saturated solution in water ([1]; saturated solution in water) | solubility in water ([1]; water) | effect on sleep parameters (sleep parameters; prior clinical studies, simulated desynchronization of the circadian clock) | tolerability profile (sleep parameters; studied in hundreds of individuals) | formation as metabolite [2] |
| --- | --- | --- | --- | --- | --- | --- | --- | --- | --- | --- |
| CCC(=O)NC[C@@H]1C[C@H]1c1cccc2c1CCO2 (relative stereo) [Tasimelteon, trans-N-[[2-(2,3-dihydrobenzofuran-4-yl)cycloprop-1yl]methyl]propanamide] | 0.3 to 0.4 | 0.1 to 0.2 | 2-4 times | very soluble or freely soluble | practically unaffected by pH | 8.5 | only slightly soluble | shown to improve sleep parameters | good tolerability profile | – |
| CCC(=O)NC[C@@H]1C[C@H]1c1cccc(O)c1CC(=O)O [M9] | – | – | – | – | – | – | – | – | – | formed in humans |
| CCC(=O)NC[C@@H]1C[C@H]1c1cccc(O)c1CCO [M11] | – | – | – | – | – | – | – | – | – | formed in humans |
